# Measured values taken from ChEMBL document CHEMBL3603746, “Discovery of New H2S Releasing Phosphordithioates and 2,3-Dihydro-2-phenyl-2-sulfanylenebenzo[d][1,3,2]oxazaphospholes with Improved Antiproliferative Activity” (J Med Chem, 2015).
# Experiments:
# [1] = Toxicity in human WI38 cells assessed as inhibition of cell proliferation after 4 days by crystal violet assay
# [2] = Induction of H2S release in 10% PBS:MeCN solution at 1 mM incubated at 22 degC in dark condition measured at 72 hrs by 2, 6-dansyl azide probed-based fluorescence assay; format: physicochemical; details: buffer, 1000 µM
# [3] = Induction of H2S release in 10% PBS:MeCN solution at 100 uM incubated at 37 degC in dark condition measured at 72 hrs by 2, 6-dansyl azide probed-based fluorescence assay; format: physicochemical; details: buffer
# [4] = Therapeutic index, ratio of IC50 for human WI38 cells to IC50 for human SKOV3 cells; details: WI38 cells and SKOV3 cells
# [5] = tested on: SK-OV-3; assay: Cytotoxicity against human SKOV3 cells assessed as inhibition of cell proliferation after 4 days by crystal violet assay; format: functional, cell-based; details: SK-OV-3, 96 h
# [6] = tested on: MCF7; assay: Cytotoxicity against human MCF7 cells assessed as inhibition of cell proliferation after 4 days by crystal violet assay; format: functional, cell-based; details: MCF7, 96 h
# [7] = Induction of H2S release in 10% PBS:MeCN solution at 5 mM incubated at 22 degC in dark condition measured at 96 hrs by 2, 6-dansyl azide probed-based fluorescence assay relative to control; details: buffer, 5000 µM
# [8] = Induction of H2S release in 10% PBS:MeCN solution at 5 mM incubated at 37 degC in dark condition measured at 96 hrs by 2, 6-dansyl azide probed-based fluorescence assay relative to GYY4137; format: physicochemical; details: buffer, 5000 µM
# [9] = tested on: MCF7; assay: cells; format: functional, cell-based; details: Homo sapiens, MCF7, 72 h
# Description: Cytotoxicity against human MCF7 cells assessed as inhibition of cell proliferation after 72 hrs by MTT assay
# [10] = tested on: MDA-MB-231; assay: cells; format: functional, cell-based; details: Homo sapiens, MDA-MB-231, 72 h
# Description: Cytotoxicity against human MDA-MB-231 cells assessed as inhibition of cell proliferation after 72 hrs by MTS assay
# [11] = Effective permeability of the compound at 500 uM after 6 hrs by PAMPA
# [12] = Induction of H2S release in 10% PBS:MeCN solution at 5 mM incubated at 37 degC in dark condition measured at 96 hrs by 0.2 mM 2, 6-dansyl azide probed-based fluorescence assay relative to control; format: physicochemical; details: buffer, 5000 µM
# [13] = Induction of H2S release in 10% PBS:MeCN solution at 5 mM incubated at 22 degC in dark condition measured at 96 hrs by 2, 6-dansyl azide probed-based fluorescence assay relative to GYY4137; format: physicochemical; details: buffer, 5000 µM
# [14] = physchem; details: DMSO, pH 7.4
# Description: Kinetic solubility of the compound in DMSO at pH 7.4 measured at 24 hrs by multiscreen filter paper-based UV absorbance analysis
# [15] = Effective permeability of the compound at 500 uM after 16 hrs by PAMPA
# [16] = Induction of H2S release in 10% PBS:MeCN solution assessed as ratio of H2S level at 37 degC to H2S level at 22 degC at 5 mM incubated in dark condition measured at 96 hrs by 2, 6-dansyl azide probed-based fluorescence assay; details: buffer, 5000 µM
# [17] = Therapeutic index, ratio of IC50 for human WI38 cells to IC50 for human MCF7 cells; details: WI38 cells and MCF7 cells
# [18] = Therapeutic index, ratio of IC50 for human WI38 cells to IC50 for human MBA-MD-231 cells; details: WI38 cells and MBA-MD-231 cells
# [19] = Induction of H2S release in 10% PBS:MeCN solution at 0.5 mM incubated at 22 degC in dark condition measured at 48 hrs by 2, 6-dansyl azide probed-based fluorescence assay relative to 12 uM of GYY4137; format: physicochemical; details: buffer, 500 µM
# [20] = Induction of H2S release in 10% PBS:MeCN solution at 0.5 mM incubated at 37 degC in dark condition measured at 48 hrs by 1 mM 2, 6-dansyl azide probed-based fluorescence assay relative to control; format: physicochemical; details: buffer, 500 µM
# [21] = Induction of H2S release in 10% PBS:MeCN solution at 0.5 mM incubated at 22 degC in dark condition measured at 48 hrs by 2, 6-dansyl azide probed-based fluorescence assay relative to control; format: physicochemical; details: buffer, 500 µM
# [22] = Induction of H2S release in 10% PBS:MeCN solution at 0.5 mM incubated at 37 degC in dark condition measured at 48 hrs by 2, 6-dansyl azide probed-based fluorescence assay relative to 6.9 uM of GYY4137; format: physicochemical; details: buffer, 500 µM
# [23] = Induction of H2S release in 10% PBS:MeCN solution assessed as ratio of H2S level at 37 degC to H2S level at 22 degC at 0.5 mM incubated in dark condition measured at 96 hrs by 2, 6-dansyl azide probed-based fluorescence assay; format: physicochemical; details: buffer, 500 µM
# [24] = Therapeutic index, ratio of IC50 for human WI38 cells to IC50 for human PC3 cells; details: WI38 cells and PC3 cells
# [25] = tested on: Hepatocyte; assay: Toxicity in transforming growth factor alpha transgenic mouse hepatocytes at 100 uM after 24 hrs by CellTiter-Glo cell viability assay; format: cell-based
# [26] = tested on: PC-3; assay: cells; format: functional, cell-based; details: Homo sapiens, PC-3, 72 h
# Description: Cytotoxicity against human PC3 cells assessed as inhibition of cell proliferation after 72 hrs by MTT assay
SMILES,IC50 at 4 days [1] [µM],selectivity ratio [4],IC50 [5] [µM],IC50 [6] [µM],%max [7] [%],fold change (FC) [8],IC50 [9] [µM],IC50 [10] [µM],%max [12] [%],fold change (FC) [13],Ratio [16],selectivity ratio [17],selectivity ratio [18],fold change (FC) [19],%max [20] [%],%max [21] [%],fold change (FC) [22],Ratio [23],selectivity ratio [24],further results
Cc1ccc2c(c1)OP(=S)(c1ccc(Oc3ccccc3)cc1)N2 (stereo unspecified),> 400,2,196,186,,,,,,,,,,,,,,,,Activity [2]: 39.2 µM; Activity [3]: 59.9 µM
COc1ccc(P(=S)(S)OCCCN)cc1 (stereo unspecified),,,> 400,> 400,0.02,< 0.1,> 500,> 500,0.06,< 0.1,2.7,,,,,,,,,"Papp at 6 h, 500 µM ([11]; PAMPA): 0.007 ×10⁻⁶ cm/s; solubility kinetic at 24 h [14]: > 280 µg/mL; Papp at 16 h, 500 µM [15]: 0.0027 ×10⁻⁶ cm/s"
C1COCCN1.COc1ccc(P(=S)(S)OC(C)C)cc1 (stereo unspecified),> 400,1.5,200,266,0.04,< 0.1,205,84.6,0.12,< 0.1,3,1.5,1.5,,,,,,,
NCc1ccccc1.S=P(S)(NCc1ccccc1)NCc1ccccc1,266,1.4,189,145,,,218,104,,,,1.4,1.4,2,1.9,2.4,2.8,0.8,1.4,
COc1ccc(P2(=S)Nc3ccccc3O2)cc1 (stereo unspecified),94.4,2.5,38.1,37.1,,,,,,,,2.5,,,,,,,,Activity [2]: 48.3 µM; Activity [3]: 42.7 µM
C1COCCN1.S=P(S)(N1CCOCC1)N1CCOCC1,683,2.6,267,221,,,331,381,,,,2.6,2.6,56,76.2,67.2,110.4,1.1,2.6,Activity [25]: Non-toxic
COc1ccc(P2(=S)Nc3cc(OC)ccc3O2)cc1 (stereo unspecified),115,2.9,30.2,39.4,,,,,,,,2.9,,,,,,,,Activity ([2]; BLD = below limit of detection): BLD; Activity ([3]; BLD = below limit of detection): BLD
C1COCCN1.COc1ccc(P(=S)(S)OC)cc1 (stereo unspecified),,,430,450,0.06,< 0.1,446,216,0.15,< 0.1,2.5,,,,,,,,,"IC50 [26]: > 200 µM; Activity [25]: Non-toxic; Peff ([11]; pampa, 6 h, 500 µM): 0.003 ×10⁻⁷ cm/s; Papp at 16 h, 500 µM [15]: 0.0031 ×10⁻⁶ cm/s"
NCC1CCCCC1.S=P(S)(NCC1CCCCC1)NCC1CCCCC1,287,1,179,172,,,> 500,> 500,,,,1,1,6.8,21.8,0.82,31.6,2.7,1,
